US9309263B2, “Fused multi-cyclic sulfone compounds as inhibitors of beta-secretase and methods of use thereof” (AMGEN INC., priority 2013, dated 2016)
Like-named read-outs stand apart in the source and are kept apart here.

Experiments:
Cathepsin D (Cat D) = Cathepsin D (Cat D) (Homo sapiens, UniProt P07339); assay: In vitro enzymatic Cathepsin D (Cat D) FRET assay; format: biochemical
Description: In Vitro Enzymatic Cathepsin D (Cat D) FRET (Fluorescence Resonance Energy Transfer) Assay
Recombinant Cat D was expressed in CHO cells. The assay buffer for CathepsinD is 0.05 M citrate pH 3.5, 10% DMSO final, 5 mM CHAPS. The Cat D enzyme (9 nM) is pre-incubated for one hour with inhibitors, typically in about 1 uL of DMSO according to a serial dilution, is added thereto. The assays are effectively started by the addition of different FRET substrates (20 nM for Cat D) and the combination is incubated for one hour. The FRET assay is terminated with by addition of Tris buffer, which raises the pH to neutrality, and the fluorescence is determined. The FRET substrate is a peptide with commercially available fluorophore and quencher, on opposite sides of the BACE cleavage site. The Cat D substrate peptide sequence is based on sequence #1 of Table 1 from Gulnik et al. FEBS Letters v413 p 379-384 1997. Proteolytic cleavage of the FRET substrate releases quenching of fluorescence (Cat D excitation 500 nm and emission 580 nm). […]
See, for instance, examples 8, 12, 15, 16, 18, 21-23, 24, 25, 26, 29, 30, 32, 41-42, 45, 53, 54, 57, 63, 67-69, 72-74, 76, 79-81, 83 & 84 (to point to just a few; referring to data in Table 2). […] See, for instance, examples 8, 12, 15, 18, 21-23, 25, 29, 30, 32, 41-42, 45, 54, 57, 67-68, 72-73, 76, 80-81, 84, 86, 91-92 & 100 (to point out those from compound examples 1-100; and with reference to data in Table 2).

[1] = target: Beta Secretase enzyme (BACE) (Homo sapiens, UniProt P56817); assay: In vitro enzymatic BACE FRET assay; format: biochemical; conditions: average IC50; read-out: BACE1 FRET assay IC50
Beta Secretase enzyme (BACE), sequence (P56817 46-501): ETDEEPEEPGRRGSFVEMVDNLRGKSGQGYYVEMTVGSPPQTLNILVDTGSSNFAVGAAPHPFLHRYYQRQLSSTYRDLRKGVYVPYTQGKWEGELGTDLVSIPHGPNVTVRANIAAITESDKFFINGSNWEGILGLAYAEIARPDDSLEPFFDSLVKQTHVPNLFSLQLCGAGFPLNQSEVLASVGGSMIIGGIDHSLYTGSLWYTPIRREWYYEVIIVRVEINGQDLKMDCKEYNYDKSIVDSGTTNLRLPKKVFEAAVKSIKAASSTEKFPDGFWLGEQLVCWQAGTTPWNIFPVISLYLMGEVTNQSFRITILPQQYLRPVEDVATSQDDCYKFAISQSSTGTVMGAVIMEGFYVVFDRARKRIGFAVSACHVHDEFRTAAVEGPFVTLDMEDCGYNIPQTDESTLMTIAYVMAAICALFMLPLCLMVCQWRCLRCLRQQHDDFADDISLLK
Description: In Vitro Enzymatic BACE FRET (Fluorescence Resonance Energy Transfer) Assay (Enzyme Assay Data in the Example Table I)
The assay buffer used in this screen is 0.05 M acetate, pH 4.2, 10% DMSO final, 100 uM genapol (which is a nonionic detergent, below its Critical Micelle Concentration). The Beta Secretase enzyme (0.2 nM) is pre-incubated for one hour with inhibitors, typically in about 1 uL of DMSO according to a serial dilution, are added thereto. This assay is effectively started by the addition of FRET substrate (50 nM) and the combination is incubated for one hour. The FRET assay is terminated with by addition of Tris buffer, which raises the pH to neutrality, and the fluorescence is determined. The FRET substrate is a peptide with commercially available fluorophore and quencher, on opposite sides of the BACE cleavage site. Proteolytic cleavage of the FRET substrate releases quenching of fluorescence (excitation 488 nm and […]).

[2] = test system: Aβ 40 in conditioned medium of cells stably expressing Amyloid Precursor Protein (APP); assay: In vitro BACE cell-based assay (Aβ 40 sandwich ELISA); conditions: Homo sapiens, HEK293; HEK cell; average IC50
Description: In Vitro BACE Cell-Based Assay
The cell-based assay measures inhibition or reduction of […] in conditioned medium of test compound treated cells expressing amyloid precursor protein.
Cells stably expressing Amyloid Precursor Protein (APP) were plated at a density of 40K cells/well in 96 well plates (Costar). The cells were cultivated for 24 hours at 37° C. and 5% CO2 in DMEM supplemented with 10% FBS. The test compounds were then added to cells in 10-point dose response concentrations with the starting concentration being either 100 μM or 10 μM. The compounds were diluted from stock solutions in DMSO and the final DMSO concentration of the test compounds on cells was 0.1%. After 24 h of incubation with the test compounds the supernatant conditioned media was collected and the Aβ 40 levels were determined using a sandwich ELISA. The IC50 of the compound was calculated from the percent of control or percent inhibition of Aβ 40 as a function of the concentration of the test compound.
The sandwich ELISA to detect Aβ 40 was performed in 96 well microtiter plates, which were pre-treated with goat anti-rabbit IgG (Pierce). The capture and detecting antibody pair that were used to detect Aβ 40 from cell supernatants were affinity purified pAb40 (Biosource) and biotinylated 6E10 (Signet Labs Inc.), respectively. The optimal concentration for the pAb40 antibody was 3 μg/ml in Superblock/TBS (Pierce) that was supplemented with 0.05% Tween 20 (Sigma). Optimal concentration for the detection antibody 6E10-biotinylated was 0.5 μg/ml in Superblock/TBS (Pierce) that had been supplemented with 2% normal goat serum and 2% normal mouse serum.
Cellular supernatants were incubated with the capture antibody for 3 h at 4° C., followed by 3 wash steps in TBS-tween (0.05%). The detecting antibody incubation was for 2 h at 4° C., again followed by the wash steps as described previously. The final readout of the ELISA is Time-Resolved Fluorescence (counts per minute) using Delfia reagents Streptavidin-Europium and Enhancement solutions (Perkin Elmer) and the Victor 2 multilabel counter (Perkin Elmer).

[3] = text summary referring to data in Table 2

Cathepsin D (Cat D), sequence (P07339 65-412, species assumed): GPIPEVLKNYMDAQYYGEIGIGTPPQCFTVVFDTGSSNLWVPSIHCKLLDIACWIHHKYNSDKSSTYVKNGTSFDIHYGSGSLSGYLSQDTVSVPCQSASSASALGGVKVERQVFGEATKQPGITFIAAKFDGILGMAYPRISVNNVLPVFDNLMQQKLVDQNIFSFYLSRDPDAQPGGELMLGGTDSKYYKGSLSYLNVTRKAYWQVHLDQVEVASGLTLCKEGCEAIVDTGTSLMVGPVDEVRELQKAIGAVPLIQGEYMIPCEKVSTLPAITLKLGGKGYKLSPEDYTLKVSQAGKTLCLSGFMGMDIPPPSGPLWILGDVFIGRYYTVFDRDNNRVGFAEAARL

| IC50 (Cathepsin D (Cat D); read-out: CatD IC50) [µM] | IC50 (Cathepsin D (Cat D); [3]) [µM] | IC50 [1] [µM] | IC50 [2] [µM] | Structure (SMILES) |
| --- | --- | --- | --- | --- |
| 1040 | > 1200 | 0.003 | 0.001 | Cc1cc(C#N)cnc1C(=O)Nc1ccc2c(c1)[C@@]1(C)N=C(N)C(C)(C)S(=O)(=O)[C@@H]1CCC2 [Example 12, N-((4aR,11bR)-2-amino-3,3,11b-trimethyl-4,4-dioxido-3,4a,5,6,7,11b-hexahydrobenzo[3,4]cyclohepta[1,2-b][1,4]thiazin-10-yl)-5-cyano-3-methyl-2-pyridinecarboxamide] |
| 369 | – | 0.094 | 0.073 | COc1cccnc1Nc1ccc2c(c1)[C@@]1(C)N=C(N)C(C)(C)S(=O)(=O)[C@@H]1CCO2 [Example 13, (4aR,11bR)-N^~10^~-(3-methoxy-2-pyridinyl)-3,3,11b-trimethyl-4a,5,6,11b-tetrahydro-3H-[1]benzoxepino[4,5-b][1,4]thiazine-2,10-diamine 4,4-dioxide] |
| 1970 | > 1200 | 0.003 | 0.0005 | CC#C[C@H](C)Oc1cnc(C(=O)Nc2ccc3c(c2)[C@@]2(C)N=C(N)C(C)(C)S(=O)(=O)[C@@H]2CCO3)cn1 [Example 15, N-((4aR,11bR)-2-amino-3,3,11b-trimethyl-4,4-dioxido-4a,5,6,11b-tetrahydro-3H-[1]benzoxepino[4,5-b][1,4]thiazin-10-yl)-5-(((1S)-1-methyl-2-butyn-1-yl)oxy)-2-pyrazinecarboxamide] |
| 979 | > 800 | 0.03 | 0.138 | CC#C[C@@H](C)Oc1cnc(C(=O)Nc2ccc3c(c2)[C@@]2(C)N=C(N)C(C)(C)S(=O)(=O)[C@@H]2CCO3)cn1 [Example 16, N-((4aR,11bR)-2-amino-3,3,11b-trimethyl-4,4-dioxido-4a,5,6,11b-tetrahydro-3H-[1]benzoxepino[4,5-b][1,4]thiazin-10-yl)-5-(((1R)-1-methyl-2-butyn-1-yl)oxy)-2-pyrazinecarboxamide] |
| > 400 | – | 1.46 | 0.833 | Cc1cc(Cl)cnc1C(=O)Nc1ccc2c(c1)[C@]1(C)N=C(N)C(C)(C)S(=O)(=O)[C@H]1CCO2 [Example 17, N-((4aS,11bS)-2-amino-3,3,11b-trimethyl-4,4-dioxido-4a,5,6,11b-tetrahydro-3H-benzo[6,7]oxepino[4,5-b][1,4]thiazin-10-yl)-5-chloro-3-methylpicolinamide] |
| 1290 | > 1200 | 0.006 | 0.014 | Cc1cc(Cl)cnc1C(=O)Nc1cnc2c(c1)[C@@]1(C)N=C(N)C(C)(C)S(=O)(=O)[C@@H]1CCO2 [Example 18, N-((4aR,11bR)-2-amino-3,3,11b-trimethyl-4,4-dioxido-4a,5,6,11b-tetrahydro-3H-pyrido[3′,2′:6,7]oxepino[4,5-b][1,4]thiazin-10-yl)-5-chloro-3-methyl-2-pyridinecarboxamide] |
| 263 | – | 0.003 | 0.019 | CC1(C)C(N)=N[C@]2(C)c3cc(Nc4nccc5cc(Cl)cnc45)cnc3OCC[C@H]2S1(=O)=O [Example 19, (4aR,11bR)-N^~10^~-(3-chloro-1,7-naphthyridin-8-yl)-3,3,11b-trimethyl-4a,5,6,11b-tetrahydro-3H-pyrido[3′,2′:6,7]oxepino[4,5-b][1,4]thiazine-2,10-diamine4,4-dioxide] |
| 377 | – | 0.019 | 0.022 | Cc1cc(Cl)cnc1C(=O)Nc1cnc2c(c1)[C@@]1(C)N=C(N)C(C)(C)S(=O)(=O)[C@H]1CCO2 [Example 20, N-((4aS,11bR)-2-amino-3,3,11b-trimethyl-4,4-dioxido-4a,5,6,11b-tetrahydro-3H-pyrido[3′,2′:6,7]oxepino[4,5-b][1,4]thiazin-10-yl)-5-chloro-3-methyl-2-pyridinecarboxamide] |
| 1420 | – | 0.007 | 0.026 | Cc1cc(C#N)cnc1C(=O)Nc1cnc2c(c1)[C@@]1(C)N=C(N)C(C)(C)S(=O)(=O)[C@H]1CCO2 [Example 21, N-((4aS,11bR)-2-amino-3,3,11b-trimethyl-4,4-dioxido-4a,5,6,11b-tetrahydro-3H-pyrido[3′,2′:6,7]oxepino[4,5-b][1,4]thiazin-10-yl)-5-cyano-3-methyl-2-pyridinecarboxamide] |
| 1240 | – | 0.017 | 0.007 | COc1cnc(C(=O)Nc2ccc3c(c2)[C@@]2(C)N=C(N)C(C)(C)S(=O)(=O)[C@@H]2CCO3)c(C)n1 [Example 22, N-((4aR,11bR)-2-amino-3,3,11b-trimethyl-4,4-dioxido-4a,5,6,11b-tetrahydro-3H-[1]benzoxepino[4,5-b][1,4]thiazin-10-yl)-5-methoxy-3-methyl-2-pyrazinecarboxamide] |
| 1400 | – | 0.003 | 0.01 | Cc1nc(OCC(F)(F)F)cnc1C(=O)Nc1ccc2c(c1)[C@@]1(C)N=C(N)C(C)(C)S(=O)(=O)[C@@H]1CCO2 [Example 23, N-((4aR,11bR)-2-amino-3,3,11b-trimethyl-4,4-dioxido-4a,5,6,11b-tetrahydro-3H-[1]benzoxepino[4,5-b][1,4]thiazin-10-yl)-3-methyl-5-(2,2,2-trifluoroethoxy)-2-pyrazinecarboxamide] |
| 969 | > 800 | 0.003 | 0.001 | CC1(C)C(N)=N[C@]2(C)c3cc(NC(=O)c4ncc(Cl)cc4Cl)ccc3OCC[C@H]2S1(=O)=O [Example 24, N-((4aR,11bR)-2-amino-3,3,11b-trimethyl-4,4-dioxido-4a,5,6,11b-tetrahydro-3H-[1]benzoxepino[4,5-b][1,4]thiazin-10-yl)-3,5-dichloro-2-pyridinecarboxamide] |
| 3530 | > 1200 | 0.007 | 0.002 | CC1(C)C(N)=N[C@]2(C)c3cc(NC(=O)c4ncc(C(F)(F)F)cc4Cl)ccc3OCC[C@H]2S1(=O)=O [Example 25, N-((4aR,11bR)-2-amino-3,3,11b-trimethyl-4,4-dioxido-4a,5,6,11b-tetrahydro-3H-[1]benzoxepino[4,5-b][1,4]thiazin-10-yl)-3-chloro-5-(trifluoromethyl)-2-pyridinecarboxamide] |
| 995 | > 800 | 0.003 | 0.001 | Cc1cc(Cl)cnc1C(=O)Nc1ccc2c(c1)[C@@]1(C)N=C(N)C(C)(C)S(=O)(=O)[C@@]1(C)CCO2 [Example 26, N-((4aS,11bR)-2-amino-3,3,4a,11b-tetramethyl-4,4-dioxido-4a,5,6,11b-tetrahydro-3H-[1]benzoxepino[4,5-b][1,4]thiazin-10-yl)-5-chloro-3-methyl-2-pyridinecarboxamide] |
